Laboratory results: patent US9150982B2, “Crystal form of (6S)-5-methyltetrahydrofolate salt and method for preparing same” (LIANYUNGANG JINKANG HEXIN PHARMACEUTICAL CO. LTD., priority 2012, dated 2015)
Where two headings read alike, the source gives them in different places.

Details: in the air, 40° C., relative humidity 60%
Description: In order to determine the stability of the novel crystal form of the Form C of (6S)-5-MTHF calcium salt, the crystal form was placed in the air at a temperature of 40° C. and a relative humidity of 60%, and the content of remained (6S)-5-MTHF calcium salt was periodically measured.

(6S)-5-methyltetrahydrofolate calcium salt [Form C]
Stability (overall result in words) (up to 9 days): good stability | Appearance (storage 0 days): White crystal | Content of remained (6S)-5-MTHF calcium salt (storage 0 days): 99.5% | Appearance (storage 3 days): White crystal | Content of remained (6S)-5-MTHF calcium salt (storage 3 days): 99.1% | Appearance (storage 6 days): White crystal | Content of remained (6S)-5-MTHF calcium salt (storage 6 days): 99.1% | Appearance (storage 9 days): White crystal | Content of remained (6S)-5-MTHF calcium salt (storage 9 days): 98.4%
